From PubChem BioAssay AID1963438 (Molecular Pharmacology Branch, DTP, NCI, 2024)
“And” between values parts separate entries of the source, which are not always exact repeats. Equal values may be shown once.

Tested on: NCI-H510 multicellular tumor spheroid growth, % test/control
Experiment: Anticancer human tumor NCI-H510 cell line growth inhibition [Asc];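 further: spheroids exposed to agents for 7 days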;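 on viability, T/C: 100% = DMSO vehicle control wells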
Conditions: for viability, T/C: stronger effect = lower value
Method in brief: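 Stromal components (HUVEC and hMSC) are co-assembled with the cancer cells into multicellular spheroids. Drugs are then added singly or paired, at concentrations falling by half-log increments from a clinically achievable maximum, capped at 10 microM without known Cmax.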

[1] = curve of first compound, second compound 0.1 µM
[2] = curve of first compound, second compound 0.316 µM
[3] = curve of first compound, second compound 1 µM

`CCN1C(C(=O)NC23CCC(C(=O)O)(CC2)CC3)C(c2cccc(Cl)c2F)C2(C(=O)Nc3cc(Cl)ccc32)C12CCCCC2` (configuration not stated) + Cc1c(S(C)(=O)=O)c(-c2cc(F)cc(N3CCN(c4ccc(NS(=O)(=O)c5ccc(NC(CCN6CCC(C(=O)OCCCP(=O)(O)O)CC6)CSc6ccccc6)c(S(=O)(=O)C(F)(F)F)c5)cc4)CC3)c2)c(-c2ccc(Cl)cc2)n1C(C)C showed an IC50 [1] greater than 3 µM, an IC50 [2] greater than 3 µM and an IC50 [3] greater than 3 µM. It also gave an IC50 (curve of first compound, second compound 3.16 µM) greater than 3 µM, an IC50 (curve of first compound, second compound 10 µM) greater than 3 µM and a viability, T/C (second compound 0.1 µM, first compound 0.00949 µM) of 101%. For the same compound, the viability, T/C (second compound 0.1 µM, first compound 0.03 µM) was 97.6%, the viability, T/C (second compound 0.1 µM, first compound 0.0949 µM) was 95.5% and the viability, T/C (second compound 0.1 µM, first compound 0.3 µM) was 96.3%. For the same compound, the viability, T/C (second compound 0.1 µM, first compound 0.949 µM) was 80.3%, the viability, T/C (second compound 0.1 µM, first compound 3 µM) was 104% and the viability, T/C (second compound 0.316 µM, first compound 0.00949 µM) was 86.3%. It also gave a viability, T/C (second compound 0.316 µM, first compound 0.03 µM) of 105%, a viability, T/C (second compound 0.316 µM, first compound 0.0949 µM) of 94.8% and a viability, T/C (second compound 0.316 µM, first compound 0.3 µM) of 94.9%. It also gave a viability, T/C (second compound 0.316 µM, first compound 0.949 µM) of 88.9%, a viability, T/C (second compound 0.316 µM, first compound 3 µM) of 83.6% and a viability, T/C (second compound 1 µM, first compound 0.00949 µM) of 103%. The viability, T/C (second compound 1 µM, first compound 0.03 µM) was 82%, the viability, T/C (second compound 1 µM, first compound 0.0949 µM) was 104% and the viability, T/C (second compound 1 µM, first compound 0.3 µM) was 99.5%. For the same compound, the viability, T/C (second compound 1 µM, first compound 0.949 µM) was 103%, the viability, T/C (second compound 1 µM, first compound 3 µM) was 95% and the viability, T/C (second compound 3.16 µM, first compound 0.00949 µM) was 88.7%. For the same compound, the viability, T/C (second compound 3.16 µM, first compound 0.03 µM) was 103%, the viability, T/C (second compound 3.16 µM, first compound 0.0949 µM) was 96.4% and the viability, T/C (second compound 3.16 µM, first compound 0.3 µM) was 114%. For the same compound, the viability, T/C (second compound 3.16 µM, first compound 0.949 µM) was 68%, the viability, T/C (second compound 3.16 µM, first compound 3 µM) was 85.1% and the viability, T/C (second compound 10 µM, first compound 0.00949 µM) was 109%. The viability, T/C (second compound 10 µM, first compound 0.03 µM) was 84%, the viability, T/C (second compound 10 µM, first compound 0.0949 µM) was 87.3% and the viability, T/C (second compound 10 µM, first compound 0.3 µM) was 59.1%. For the same compound, the viability, T/C (second compound 10 µM, first compound 0.949 µM) was 72.8% and the viability, T/C (second compound 10 µM, first compound 3 µM) was 56.3%.

`NC1CCC(NC2CC2c2ccccc2)CC1` (configuration not stated) was tested, and the viability, T/C (compound 0.000316 µM) was 67.7% and 77.1% and 95.6%, the viability, T/C (compound 0.001 µM) was 69.7% and 75.9% and 98.6% and the viability, T/C (compound 0.00316 µM) was 79.1% and 83% and 96.4%. For the same compound, the viability, T/C (compound 0.01 µM) was 69.3% and 84.8% and 101%, the viability, T/C (compound 0.0316 µM) was 89.1% and 83.1% and 91.1% and the viability, T/C (compound 0.1 µM) was 65% and 77.7% and 93%. For the same compound, the IC50 (curve of compound) was greater than 0.1 µM.

Compound `Cc1nc(N2CCC3(CC2)COC(C)C3N)c(CO)nc1Sc1ccnc(N)c1Cl` (configuration not stated) + CCN1C(C(=O)NC23CCC(C(=O)O)(CC2)CC3)C(c2cccc(Cl)c2F)C2(C(=O)Nc3cc(Cl)ccc32)C12CCCCC2 has an IC50 (curve of first compound, second compound 0.03 µM) greater than 3 µM, an IC50 (curve of first compound, second compound 0.0949 µM) greater than 3 µM and an IC50 (curve of first compound, second compound 0.3 µM) greater than 3 µM. It also gave an IC50 (curve of first compound, second compound 0.949 µM) greater than 3 µM, an IC50 (curve of first compound, second compound 3 µM) greater than 3 µM and a viability, T/C (second compound 0.03 µM, first compound 0.00949 µM) of 103%. The viability, T/C (second compound 0.03 µM, first compound 0.03 µM) was 119%, the viability, T/C (second compound 0.03 µM, first compound 0.0949 µM) was 119% and the viability, T/C (second compound 0.03 µM, first compound 0.3 µM) was 119%. For the same compound, the viability, T/C (second compound 0.03 µM, first compound 0.949 µM) was 114%, the viability, T/C (second compound 0.03 µM, first compound 3 µM) was 95.9% and the viability, T/C (second compound 0.0949 µM, first compound 0.00949 µM) was 110%. The viability, T/C (second compound 0.0949 µM, first compound 0.03 µM) was 91.5%, the viability, T/C (second compound 0.0949 µM, first compound 0.0949 µM) was 123% and the viability, T/C (second compound 0.0949 µM, first compound 0.3 µM) was 102%. For the same compound, the viability, T/C (second compound 0.0949 µM, first compound 0.949 µM) was 104%, the viability, T/C (second compound 0.0949 µM, first compound 3 µM) was 84.3% and the viability, T/C (second compound 0.3 µM, first compound 0.00949 µM) was 101%. The viability, T/C (second compound 0.3 µM, first compound 0.03 µM) was 116%, the viability, T/C (second compound 0.3 µM, first compound 0.0949 µM) was 104% and the viability, T/C (second compound 0.3 µM, first compound 0.3 µM) was 101%. For the same compound, the viability, T/C (second compound 0.3 µM, first compound 0.949 µM) was 110%, the viability, T/C (second compound 0.3 µM, first compound 3 µM) was 90.6% and the viability, T/C (second compound 0.949 µM, first compound 0.00949 µM) was 116%. It also gave a viability, T/C (second compound 0.949 µM, first compound 0.03 µM) of 105%, a viability, T/C (second compound 0.949 µM, first compound 0.0949 µM) of 98.5% and a viability, T/C (second compound 0.949 µM, first compound 0.3 µM) of 96%. The viability, T/C (second compound 0.949 µM, first compound 0.949 µM) was 91.9%, the viability, T/C (second compound 0.949 µM, first compound 3 µM) was 102% and the viability, T/C (second compound 3 µM, first compound 0.00949 µM) was 99.9%. It also gave a viability, T/C (second compound 3 µM, first compound 0.03 µM) of 97.5%, a viability, T/C (second compound 3 µM, first compound 0.0949 µM) of 102% and a viability, T/C (second compound 3 µM, first compound 0.3 µM) of 120%. It also gave a viability, T/C (second compound 3 µM, first compound 0.949 µM) of 88.2% and a viability, T/C (second compound 3 µM, first compound 3 µM) of 115%.

Compound `Cn1ncnc1[C@H]1c2n[nH]c(=O)c3cc(F)cc(c23)N[C@@H]1c1ccc(F)cc1` + CNC(C)C(=O)NC1CN(S(=O)(=O)c2cccc(S(=O)(=O)N3CCC4CCC(C(=O)NC(c5ccccc5)c5ccccc5)N4C(=O)C(NC(=O)C(C)NC)C3)c2)CCC2CCC(C(=O)NC(c3ccccc3)c3ccccc3)N2C1=O has an IC50 (curve of first compound, second compound 0.01 µM) greater than 0.1 µM, an IC50 (curve of first compound, second compound 0.0316 µM) greater than 0.1 µM and an IC50 [1] greater than 0.1 µM. For the same compound, the IC50 [2] was greater than 0.1 µM, the IC50 [3] was greater than 0.1 µM and the viability, T/C (second compound 0.01 µM, first compound 0.000316 µM) was 102%. For the same compound, the viability, T/C (second compound 0.01 µM, first compound 0.001 µM) was 101%, the viability, T/C (second compound 0.01 µM, first compound 0.00316 µM) was 105% and the viability, T/C (second compound 0.01 µM, first compound 0.01 µM) was 104%. It also gave a viability, T/C (second compound 0.01 µM, first compound 0.0316 µM) of 72.2%, a viability, T/C (second compound 0.01 µM, first compound 0.1 µM) of 85.8% and a viability, T/C (second compound 0.0316 µM, first compound 0.000316 µM) of 96%. It also gave a viability, T/C (second compound 0.0316 µM, first compound 0.001 µM) of 102%, a viability, T/C (second compound 0.0316 µM, first compound 0.00316 µM) of 97% and a viability, T/C (second compound 0.0316 µM, first compound 0.01 µM) of 97.2%. The viability, T/C (second compound 0.0316 µM, first compound 0.0316 µM) was 78%, the viability, T/C (second compound 0.0316 µM, first compound 0.1 µM) was 98.4% and the viability, T/C (second compound 0.1 µM, first compound 0.000316 µM) was 110%. It also gave a viability, T/C (second compound 0.1 µM, first compound 0.001 µM) of 97%, a viability, T/C (second compound 0.1 µM, first compound 0.00316 µM) of 104% and a viability, T/C (second compound 0.1 µM, first compound 0.01 µM) of 98.2%. The viability, T/C (second compound 0.1 µM, first compound 0.0316 µM) was 72.1%, the viability, T/C (second compound 0.1 µM, first compound 0.1 µM) was 91.4% and the viability, T/C (second compound 0.316 µM, first compound 0.000316 µM) was 113%. The viability, T/C (second compound 0.316 µM, first compound 0.001 µM) was 108%, the viability, T/C (second compound 0.316 µM, first compound 0.00316 µM) was 96.6% and the viability, T/C (second compound 0.316 µM, first compound 0.01 µM) was 96%. It also gave a viability, T/C (second compound 0.316 µM, first compound 0.0316 µM) of 56.8%, a viability, T/C (second compound 0.316 µM, first compound 0.1 µM) of 93.6% and a viability, T/C (second compound 1 µM, first compound 0.000316 µM) of 110%. For the same compound, the viability, T/C (second compound 1 µM, first compound 0.001 µM) was 106%, the viability, T/C (second compound 1 µM, first compound 0.00316 µM) was 106% and the viability, T/C (second compound 1 µM, first compound 0.01 µM) was 97.5%. It also gave a viability, T/C (second compound 1 µM, first compound 0.0316 µM) of 92.3% and a viability, T/C (second compound 1 µM, first compound 0.1 µM) of 91.1%.
